Measured values published in US20210395262A1, “INHIBITORS OF HUMAN IMMUNODEFICIENCY VIRUS REPLICATION” (ViiV HEALTHCARE UK (NO.5) LIMITED, priority 2018, published 2021).
Where two headings read alike, the source gives them in different places.

Experiments:
Assay type in all cases: cell-based
recombinant NL4-3 virus = assay: HIV cell culture assay (antiviral activity, luciferase readout in MT-2 cells)
Summary of the method: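 MT-2 cells infected for 4-5 days with NL4-3 reference virus carrying Renilla luciferase in place of part of nef, in presence of serial compound dilutions. Luciferase activity read with live-cell substrate. EC50 derived from median effect equation, slope parameter m.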

uninfected MT2 cells = assay: Compound cytotoxicity, XTT-based colorimetric assay; conditions: uninfected MT2 cells, day 4, XTT
Summary of the method: (§1)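 Run under the antiviral-assay protocol but without virus. Viability was read on day 4 and CC50 values were derived from the readout.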

[1] = as above; conditions: human; uninfected MT2 cells, day 4, XTT; read-out: CC50
Summary of the method: as §1

[2] = Human immunodeficiency virus 1, NL43, MT2

## C[C@@H]1CN(c2ccc3c(=O)n(-c4ccc(Cl)c5c(NS(C)(=O)=O)nn(CC(F)F)c45)c([C@H](Cc4cc(F)cc(F)c4)NC(=O)Cn4nc(C(F)F)c5c4C(F)(F)[C@@H]4C[C@H]54)nc3c2)C[C@H](C)O1 [Example 8, N—((S)-1-((3P)-3-(4-chloro-1-(2,2-difluoroethyl)-3-(methylsulfonamido)-1H-indazol-7-yl)-7-((2S,6R)-2,6-dimethylmorpholino)-4-oxo-3,4-dihydroquinazolin-2-yl)-2-(3,5-difluorophenyl)ethyl)-2-((3bS,4aR)-3-(difluoromethyl)-5,5-difluoro-3b,4,4a,5-tetrahydro-1H-cyclopropa[3,4]cyclopenta[1,2-c]pyrazol-1-yl)acetamide]
Recombinant NL4-3 virus; MT-2 cells infected for 4-5 days with recombinant NL4-3 virus carrying Renilla luciferase, luciferase activity, read-out: EC50
  EC50: 0.093 nM
Uninfected MT2 cells
  CC50: > 500 nM

## CO[C@@H]1CCN(c2ccc3c(=O)n(-c4ccc(Cl)c5c(NS(C)(=O)=O)nn(C)c45)c([C@H](Cc4cc(F)cc(F)c4)NC(=O)Cn4nc(C(F)F)c5c4C(F)(F)[C@@H]4C[C@H]54)nc3c2)C1 (atropisomer, axis not shown; (P)) [Example 5, N—((S)-1-((3P)-3-(4-chloro-1-methyl-3-(methylsulfonamido)-1H-indazol-7-yl)-7-((R)-3-methoxypyrrolidin-1-yl)-4-oxo-3,4-dihydroquinazolin-2-yl)-2-(3,5-difluorophenyl)ethyl)-2-((3bS,4aR)-3-(difluoromethyl)-5,5-difluoro-3b,4,4a,5-tetrahydro-1H-cyclopropa[3,4]cyclopenta[1,2-c]pyrazol-1-yl)acetamide]
Recombinant NL4-3 virus; [2]
  EC50: 0.05 nM
[1]
  CC50 at 4 days: > 500 nM

## Cc1cc(C(F)F)nn1C(C)C(=O)N[C@@H](Cc1cc(F)cc(F)c1)c1nc2cc(N3C[C@@H](C)O[C@@H](C)C3)ccc2c(=O)n1-c1ccc(Cl)c2c(NS(C)(=O)=O)nn(CC(F)F)c12 (stereo partly drawn) [Example 51, N—((S)-1-((3P)-3-(4-chloro-1-(2,2-difluoroethyl)-3-(methylsulfonamido)-1H-indazol-7-yl)-7-((2S,6R)-2,6-dimethylmorpholino)-4-oxo-3,4-dihydroquinazolin-2-yl)-2-(3,5-difluorophenyl)ethyl)-2-(3-(difluoromethyl)-5-methyl-1H-pyrazol-1-yl)propanamide]
Recombinant NL4-3 virus; [2]
  EC50: 1.9 nM
[1]
  CC50 at 4 days: > 500 nM
